The results in this text go back to patent US12552775B2, “Compounds and uses thereof” (Foghorn Therapeutics Inc., priority 2020, dated 2026).

For test [1], the target named is T1, HiBit-BRG1 fusion protein (Homo sapiens, UniProt P51532).
T1 construct: expressed in transfected cells
Put plainly: HiBiT-BRG1 cell-based degradation assay (Nano-Glo HiBiT Lytic Detection, 24 h). The following applies: stable HeLa cell line expressing HiBit-BRG1 and LgBit, top dose 30 μM, read-out: BRG1 HiBit Degradation Maximum (%). The method, boiled down: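 HeLa cells stably expressing HiBiT-BRG1 plus LgBiT were treated with 10-point 3-fold compound dilutions (top 30 μM final) for 24 h. Lytic Nano-Glo HiBiT luminescence was read. % degradation was normalised between DMSO (high control) and 2 μM of a reference BRM/BRG1 degrader (low control).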
For orientation: The HiBiT peptide binds its large partner to form an active luciferase.

The target of test [2] is T2, HiBit-BRM fusion protein (Homo sapiens, UniProt P51531).
T2 construct: expressed in transfected cells
Description: HiBiT-BRM cell-based degradation assay (Nano-Glo HiBiT Lytic Detection, 24 h). Particulars: stable HeLa cell line expressing HiBiT-BRM, top dose 30 μM. A digest of the protocol:
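Stable HiBiT-BRM HeLa cells were treated with 10-point 3-fold serial dilutions (30 μM final top dose, duplicate) for 24 h, then lysed with LgBiT-containing detection reagent and luminescence read. Degradation % was normalised to DMSO (high control) and 2 μM reference BRM/BRG1 degrader (low control).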

T2 sequence (P51531 whole entry, the tested form may be a part): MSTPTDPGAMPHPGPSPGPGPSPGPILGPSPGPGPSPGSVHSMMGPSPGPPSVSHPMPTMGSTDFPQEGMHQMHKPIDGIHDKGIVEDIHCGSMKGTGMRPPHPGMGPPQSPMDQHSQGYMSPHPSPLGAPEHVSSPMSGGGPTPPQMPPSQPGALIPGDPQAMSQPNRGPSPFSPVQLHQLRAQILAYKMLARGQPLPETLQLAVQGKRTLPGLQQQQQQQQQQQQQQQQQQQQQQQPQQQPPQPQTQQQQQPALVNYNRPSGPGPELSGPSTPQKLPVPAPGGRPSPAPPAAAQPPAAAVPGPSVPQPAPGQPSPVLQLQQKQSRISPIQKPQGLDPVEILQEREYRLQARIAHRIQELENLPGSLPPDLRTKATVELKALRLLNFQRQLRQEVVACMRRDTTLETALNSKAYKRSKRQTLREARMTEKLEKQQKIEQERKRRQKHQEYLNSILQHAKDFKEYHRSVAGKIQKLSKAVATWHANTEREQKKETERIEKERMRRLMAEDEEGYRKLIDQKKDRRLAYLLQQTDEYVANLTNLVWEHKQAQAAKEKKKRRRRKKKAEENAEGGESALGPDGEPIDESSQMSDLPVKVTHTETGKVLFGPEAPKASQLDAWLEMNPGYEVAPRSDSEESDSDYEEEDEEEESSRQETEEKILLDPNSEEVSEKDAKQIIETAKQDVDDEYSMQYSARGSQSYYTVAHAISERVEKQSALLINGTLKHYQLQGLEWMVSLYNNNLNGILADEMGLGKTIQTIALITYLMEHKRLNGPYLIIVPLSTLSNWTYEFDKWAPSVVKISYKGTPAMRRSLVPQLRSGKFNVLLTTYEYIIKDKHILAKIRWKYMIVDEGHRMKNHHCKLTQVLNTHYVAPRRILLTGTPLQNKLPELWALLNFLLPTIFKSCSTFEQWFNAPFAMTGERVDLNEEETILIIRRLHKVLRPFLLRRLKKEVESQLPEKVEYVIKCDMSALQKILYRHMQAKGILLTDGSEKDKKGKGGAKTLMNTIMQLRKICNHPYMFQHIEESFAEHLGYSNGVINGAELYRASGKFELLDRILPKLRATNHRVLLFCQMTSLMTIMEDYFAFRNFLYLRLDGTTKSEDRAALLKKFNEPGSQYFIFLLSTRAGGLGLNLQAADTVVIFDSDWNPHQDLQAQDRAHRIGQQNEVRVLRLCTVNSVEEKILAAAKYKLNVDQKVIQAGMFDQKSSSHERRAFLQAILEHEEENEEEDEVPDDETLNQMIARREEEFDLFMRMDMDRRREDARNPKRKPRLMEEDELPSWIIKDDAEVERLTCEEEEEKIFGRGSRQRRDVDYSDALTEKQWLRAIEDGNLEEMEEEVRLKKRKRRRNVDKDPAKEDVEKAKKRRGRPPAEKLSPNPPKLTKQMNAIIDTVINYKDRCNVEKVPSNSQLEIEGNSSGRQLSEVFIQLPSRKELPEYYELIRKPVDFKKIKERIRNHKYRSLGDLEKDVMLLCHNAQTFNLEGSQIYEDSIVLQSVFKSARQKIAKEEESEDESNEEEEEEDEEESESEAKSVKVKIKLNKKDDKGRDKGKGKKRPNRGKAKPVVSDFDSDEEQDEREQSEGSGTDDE
T1 sequence (P51532 whole entry, the tested form may be a part): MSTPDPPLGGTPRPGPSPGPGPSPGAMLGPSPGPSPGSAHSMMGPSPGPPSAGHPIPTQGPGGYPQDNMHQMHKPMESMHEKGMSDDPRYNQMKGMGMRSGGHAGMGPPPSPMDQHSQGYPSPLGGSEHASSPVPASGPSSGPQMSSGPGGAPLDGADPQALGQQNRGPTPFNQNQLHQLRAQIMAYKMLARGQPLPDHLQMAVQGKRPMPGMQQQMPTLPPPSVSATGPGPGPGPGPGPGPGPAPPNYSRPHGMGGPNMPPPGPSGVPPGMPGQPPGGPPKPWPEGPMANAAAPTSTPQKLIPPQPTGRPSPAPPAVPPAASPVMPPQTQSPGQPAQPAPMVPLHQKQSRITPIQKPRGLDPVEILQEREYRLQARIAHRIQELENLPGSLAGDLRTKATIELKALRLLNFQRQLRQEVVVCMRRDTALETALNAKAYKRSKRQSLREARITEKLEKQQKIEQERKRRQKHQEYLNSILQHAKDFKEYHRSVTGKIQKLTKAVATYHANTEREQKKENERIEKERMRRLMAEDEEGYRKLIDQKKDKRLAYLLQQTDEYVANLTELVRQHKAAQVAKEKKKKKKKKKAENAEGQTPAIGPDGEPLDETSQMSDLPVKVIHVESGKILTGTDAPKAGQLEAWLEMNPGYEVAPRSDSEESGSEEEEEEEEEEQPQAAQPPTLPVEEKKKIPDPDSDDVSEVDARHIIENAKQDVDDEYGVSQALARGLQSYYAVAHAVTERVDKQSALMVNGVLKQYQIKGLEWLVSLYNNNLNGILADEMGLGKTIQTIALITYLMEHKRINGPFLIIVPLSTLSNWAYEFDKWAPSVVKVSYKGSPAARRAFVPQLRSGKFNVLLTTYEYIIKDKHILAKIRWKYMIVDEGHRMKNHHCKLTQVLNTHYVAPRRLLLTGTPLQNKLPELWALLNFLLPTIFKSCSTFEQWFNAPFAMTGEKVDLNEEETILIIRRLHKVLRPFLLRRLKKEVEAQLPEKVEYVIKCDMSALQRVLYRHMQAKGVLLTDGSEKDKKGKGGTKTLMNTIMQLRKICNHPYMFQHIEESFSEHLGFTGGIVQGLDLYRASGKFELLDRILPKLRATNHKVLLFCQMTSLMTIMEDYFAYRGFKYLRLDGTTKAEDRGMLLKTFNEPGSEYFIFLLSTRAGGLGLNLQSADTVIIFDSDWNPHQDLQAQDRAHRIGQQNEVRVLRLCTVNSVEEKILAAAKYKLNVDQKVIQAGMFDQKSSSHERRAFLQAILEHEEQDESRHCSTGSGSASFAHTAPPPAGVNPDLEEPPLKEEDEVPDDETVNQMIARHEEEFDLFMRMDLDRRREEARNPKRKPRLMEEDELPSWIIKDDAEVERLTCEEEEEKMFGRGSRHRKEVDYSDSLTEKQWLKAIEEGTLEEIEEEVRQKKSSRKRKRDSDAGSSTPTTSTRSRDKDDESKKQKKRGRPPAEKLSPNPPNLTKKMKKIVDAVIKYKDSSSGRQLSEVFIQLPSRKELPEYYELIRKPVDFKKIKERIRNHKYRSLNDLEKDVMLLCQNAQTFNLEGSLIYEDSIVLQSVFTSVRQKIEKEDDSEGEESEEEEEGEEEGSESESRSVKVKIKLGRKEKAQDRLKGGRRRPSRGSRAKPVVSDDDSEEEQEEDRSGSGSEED

In the case of `Cc1ncsc1-c1ccc(CNC(=O)[C@@H]2C[C@@H](O)CN2C(=O)[C@@H](NC(=O)CCCCCCCCCNC(=O)C23CC(COc4cc(-c5ccccc5O)nnc4N)(C2)C3)C(C)(C)C)cc1` [Compound 72, (2S,4R)-1-((S)-2-(10-(3-(((3-amino-6-(2-hydroxyphenyl)pyridazin-4-yl)oxy)methyl)bicyclo[1.1.1]pentane-1-carboxamido)decanamido)-3,3-dimethylbutanoyl)-4-hydroxy-N-(4-(4-methylthiazol-5-yl)benzyl)pyrrolidine-2-carboxamide], the Dmax in test [1] was under 50%. In addition, the “BRM HiBit Degradation Maximum (%)” value in test [2] is recorded as “B (“B” indicates maximum degradation ≥ 50%)”.

Take `Cc1ncsc1-c1ccc(CNC(=O)[C@@H]2C[C@@H](O)CN2C(=O)[C@@H](NC(=O)COCCOCCNC(=O)C23CC(COc4cc(-c5ccccc5O)nnc4N)(C2)C3)C(C)(C)C)cc1` [Compound 68, (2S,4R)-1-((S)-1-(3-(((3-amino-6-(2-hydroxyphenyl)pyridazin-4-yl)oxy)methyl)bicyclo[1.1.1]pentan-1-yl)-12-(tert-butyl)-1,10-dioxo-5,8-dioxa-2,11-diazatridecan-13-oyl)-4-hydroxy-N-(4-(4-methylthiazol-5-yl)benzyl)pyrrolidine-2-carboxamide; formic acid]: the Dmax in test [1] is under 50%. In test [2], the “BRM HiBit Degradation Maximum (%)” value is on record as “C (“C” indicates maximum degradation < 50%)”.

With `Nc1nnc(-c2ccccc2O)cc1OCC12CC(CNC(=O)CCN3CC4(C3)CN(c3ccc5c(c3)C(=O)N(C3CCC(=O)NC3=O)C5=O)C4)(C1)C2` (stereo not drawn) [Compound 17, N-((3-(((3-amino-6-(2-hydroxyphenyl)pyridazin-4-yl)oxy)methyl)bicyclo[1.1.1]pentan-1-yl)methyl)-3-(6-(2-(2,6-dioxopiperidin-3-yl)-1,3-dioxoisoindolin-5-yl)-2,6-diazaspiro [3.3]heptan-2-yl)propanamide], in test [1], the Dmax was under 50%. Moreover, the “BRM HiBit Degradation Maximum (%)” value in test [2] was “C (“C” indicates maximum degradation < 50%)”.

For the molecule `CN(CCNC(=O)COc1ccc2c(c1)C(=O)N(C1CCC(=O)NC1=O)C2=O)CCNC(=O)C12CC(COc3cc(-c4ccccc4O)nnc3N)(C1)C2` (stereo not drawn) [Compound 76, 3-(((3-amino-6-(2-hydroxyphenyl)pyridazin-4-yl)oxy)methyl)-N-(2-((2-(2-((2-(2,6-dioxopiperidin-3-yl)-1,3-dioxoisoindolin-5-yl)oxy)acetamido)ethyl)(methyl)amino)ethyl)bicyclo[1.1.1]pentane-1-carboxamide], the Dmax in test [1] was under 50%. In test [2], the “BRM HiBit Degradation Maximum (%)” value is reported as “C (“C” indicates maximum degradation < 50%)”.

With `Nc1nnc(-c2ccccc2O)cc1OCC12CC(C(=O)NCCC3CCN(c4ccc5c(c4)C(=O)N(C4CCC(=O)NC4=O)C5=O)CC3)(C1)C2` (stereo not drawn) [Compound 104, 3-(((3-amino-6-(2-hydroxyphenyl)pyridazin-4-yl)oxy)methyl)-N-(2-(1-(2-(2,6-dioxopiperidin-3-yl)-1,3-dioxoisoindolin-5-yl)piperidin-4-yl)ethyl)bicyclo[1.1.1]pentane-1-carboxamide], in test [1], the Dmax is under 50%. In addition, in test [2], the “BRM HiBit Degradation Maximum (%)” value is “C (“C” indicates maximum degradation < 50%)”.

With `Nc1nnc(-c2ccccc2O)cc1OCC12CC(C(=O)N3CC(CN4CCN(c5ccc6c(c5)C(=O)N(C5CCC(=O)NC5=O)C6=O)CC4)C3)(C1)C2` (stereo not drawn) [Compound 100, 5-(4-((1-(3-(((3-amino-6-(2-hydroxyphenyl)pyridazin-4-yl)oxy)methyl)bicyclo[1.1.1]pentane-1-carbonyl)azetidin-3-yl)methyl)piperazin-1-yl)-2-(2,6-dioxopiperidin-3-yl)isoindoline-1,3-dione; formic acid], in test [1], the Dmax is under 50%. In addition, in test [2], the “BRM HiBit Degradation Maximum (%)” value is “C (“C” indicates maximum degradation < 50%)”.

Regarding `Cc1ncsc1-c1ccc(CNC(=O)[C@@H]2C[C@@H](O)CN2C(=O)[C@@H](NC(=O)CCCCCCCNC(=O)C23CC(COc4cc(-c5ccccc5O)nnc4N)(C2)C3)C(C)(C)C)cc1` [Compound 71, (2S,4R)-1-((S)-2-(8-(3-(((3-amino-6-(2-hydroxyphenyl)pyridazin-4-yl)oxy)methyl)bicyclo[1.1.1]pentane-1-carboxamido)octanamido)-3,3-dimethylbutanoyl)-4-hydroxy-N-(4-(4-methylthiazol-5-yl)benzyl)pyrrolidine-2-carboxamide], in test [1], the Dmax is under 50%. For the same molecule, the “BRM HiBit Degradation Maximum (%)” value in test [2] is recorded as “B (“B” indicates maximum degradation ≥ 50%)”.

Consider `CN(CCNC(=O)COc1cccc2c1C(=O)N(C1CCC(=O)NC1=O)C2=O)CCNC(=O)C12CC(COc3cc(-c4ccccc4O)nnc3N)(C1)C2` (stereo not drawn) [Compound 75, 3-(((3-amino-6-(2-hydroxyphenyl)pyridazin-4-yl)oxy)methyl)-N-(2-((2-(2-((2-(2,6-dioxopiperidin-3-yl)-1,3-dioxoisoindolin-4-yl)oxy)acetamido)ethyl)(methyl)amino)ethyl)bicyclo[1.1.1]pentane-1-carboxamide], for which, in test [1], the Dmax is under 50%. The “BRM HiBit Degradation Maximum (%)” value in test [2] is given as “C (“C” indicates maximum degradation < 50%)”.

Take `Cc1ncsc1-c1ccc(CNC(=O)[C@@H]2C[C@@H](O)CN2C(=O)[C@@H](NC(=O)CCCCCNC(=O)C23CC(COc4cc(-c5ccccc5O)nnc4N)(C2)C3)C(C)(C)C)cc1` [Compound 70, (2S,4R)-1-((S)-2-(6-(3-(((3-amino-6-(2-hydroxyphenyl)pyridazin-4-yl)oxy)methyl)bicyclo[1.1.1]pentane-1-carboxamido)hexanamido)-3,3-dimethylbutanoyl)-4-hydroxy-N-(4-(4-methylthiazol-5-yl)benzyl)pyrrolidine-2-carboxamide]: the Dmax in test [1] was under 50%. Moreover, the “BRM HiBit Degradation Maximum (%)” value in test [2] is listed as “B (“B” indicates maximum degradation ≥ 50%)”.

As for `Nc1nnc(-c2ccccc2O)cc1OCC12CC(C(=O)N3CC(Oc4ccc5c(c4)C(=O)N(C4CCC(=O)NC4=O)C5=O)C3)(C1)C2` (stereo not drawn) [Compound 96, 5-((1-(3-(((3-amino-6-(2-hydroxyphenyl)pyridazin-4-yl)oxy)methyl)bicyclo[1.1.1]pentane-1-carbonyl)azetidin-3-yl)oxy)-2-(2,6-dioxopiperidin-3-yl)isoindoline-1,3-dione], the Dmax in test [1] was under 50%. Also, the “BRM HiBit Degradation Maximum (%)” value in test [2] is reported as “C (“C” indicates maximum degradation < 50%)”.

In the case of `Nc1nnc(-c2ccccc2O)cc1OCC12CC(C(=O)NCCCC#Cc3cccc4c3C(=O)N(C3CCC(=O)NC3=O)C4=O)(C1)C2` (stereo not drawn) [Compound 88, 3-(((3-amino-6-(2-hydroxyphenyl)pyridazin-4-yl)oxy)methyl)-N-(5-(2-(2,6-dioxopiperidin-3-yl)-1,3-dioxoisoindolin-4-yl)pent-4-yn-1-yl)bicyclo[1.1.1]pentane-1-carboxamide], in test [1], the Dmax was under 50%. In addition, the “BRM HiBit Degradation Maximum (%)” value in test [2] is “C (“C” indicates maximum degradation < 50%)”.

For the molecule `Nc1nnc(-c2ccccc2O)cc1OCCC12CC(NC(=O)CCCCCCCCCCNc3cccc4c3C(=O)N(C3CCC(=O)NC3=O)C4=O)(C1)C2` (stereo not drawn) [Compound 24, N-[3-(2-[[3-amino-6-(2-hydroxyphenyl)pyridazin-4-yl]oxy]ethyl)bicyclo[1.1.1]pentan-1-yl]-11-[[2-(2,6-dioxopiperidin-3-yl)-1,3-dioxoisoindol-4-yl]amino]undecanamide], the Dmax in test [1] is under 50%. The “BRM HiBit Degradation Maximum (%)” value in test [2] is “C (“C” indicates maximum degradation < 50%)”.
